# Measurements as given in patent US20220193092A1, “PROGESTOGEN FOR USE IN THE TREATMENT OF CYTOKINE RELEASE SYNDROME” (Shenzhen Evergreen Therapeutics Co,. Ltd., priority 2020, published 2022).
# Tests used:
# Assay type in all cases: cell-based
# [1] = tested on: human peripheral blood mononuclear cells (PBMCs); assay: T-cell inflammation inhibition assay using PHA: cytokine release from PBMCs
# Experimental: (§1) The human peripheral blood mononuclear cells (PBMCs) used in the following experiments are derived from Eurofins Discovery (St Charles, Mo., USA) and are a mixture of PBMCs from three healthy human subjects (Lot#98, 99, 101).
# (§2) 2) T-Cell Inflammation Inhibition Assay Protocol Using Anti-CD3 (OKT3) or PHA
# (§3) Cryopreserved PBMCs are drip thawed, pooled and diluted to an appropriate density, and inoculated into a 96-well polypropylene plate (2×10^5 cells per well) with 150 μL per well of culture medium (RPMI 1640, 10% heat inactivated fetal bovine serum, 1% penicillin/streptomycin, 2 mM L-glutamine). The cells are incubated under 5% CO2 at 37° C. for 1 hour before adding HPC. HPC is dissolved in 50% ethanol & PBS, and is further diluted to 20× with cell culture medium. Then HPC is added to the PBMCs in volumes of 10 μL (1×) in triplicate and incubated under 5% CO2 at 37° C. for 16 hours.
# (§4) After incubation for 16 hours, 40 μL of anti-CD3 (OKT3, 3 μg/well or 15 μg/mL) or PHA (10 μg/mL) is added to the wells according to the plate layout. The cells are incubated under 5% CO2 at 37° C. for 48 hours. Thereafter, the plates are centrifuged at 200×g for 10 minutes. Cell culture supernatants are collected and stored at −80° C. until use in analysis.
# (§5) The cytokine level of each sample is determined using Luminex methodology and carried out in accordance with the manufacturer's protocol. Cytokine levels in the cell culture supernatants are determined in accordance with the manufacturer's protocol using Human Cytokine/Chemokine Magnetic bead panel from Millipore Sigma (catalogue No. HCYTOMAG-60K) with standards range 3.2, 16, 80, 400, 2000, […].
# (§6) The following cytokines are measured: IFN-γ, IL-2, IL-6, IL-10 and TNFα.
# [2] = tested on: human peripheral blood mononuclear cells (PBMCs); assay: T-cell inflammation inhibition assay using anti-CD28 super agonist (ANC28.1/5D10): cytokine release from PBMCs; details: PBMCs stimulated by anti-CD28 antibody
# Experimental: as §1
# 1) T-cell Inflammation Inhibition Assay Protocol Using Anti-CD28 Super Agonists First Day
# High-binding enzyme-labeled plates are coated with anti-CD28 super agonists (clone ANC28.1/5D10, 2 μg/well) dissolved in PBS 1× and incubated overnight in a biosafety cabinet with lid open and immobilized by air-dry. Cryopreserved PBMCs are drip thawed, pooled and diluted to an appropriate density, and then are inoculated into a U bottom 96-well polypropylene plate (1.2×10^5 cells per well) with 228 μL per well of culture medium (RPMI 1640, 10% heat inactivated fetal bovine serum, 1% penicillin/streptomycin, 2 mM L-glutamine). The cells are incubated under 5% CO2 at 37° C. for 1 hour before adding HPC. HPC is dissolved in 50% ethanol & PBS, and is further diluted to 20× with cell culture medium. Then HPC is added to the PBMCs in volumes of 12 μL (1×) in triplicate and incubated under 5% CO2 at 37° C. for 16 hours.
# After 16 hours of incubation, 200 μL of cells (1×10^5) treated with HPC or a control reagent are transferred to the anti-CD28 coated enzyme-labeled plates, and incubated under 5% CO2 at 37° C. for 48 hours. For the negative control groups, 200 μL of cells (1×10^5) are transferred to an enzyme-labeled plate coated with anti-CD28 or isotype IgG1. After 48 hours of incubation, the enzyme-labeled plates are centrifuged at […] for 10 minutes. Cell culture supernatants are collected and stored at −80° C. until use in analysis.
# as §5, §6
# [3] = tested on: human peripheral blood mononuclear cells (PBMCs); assay: T-cell inflammation inhibition assay using anti-CD3 (OKT3): cytokine release from PBMCs; details: PBMCs stimulated by OKT3
# Experimental: as §1, §2, §3, §4, §5, §6
# [4] = PBMCs stimulated by PHA (10 μg/mL), 16 h HPC pre-incubation, 48 h stimulation, Luminex
# [5] = 16 h HPC pre-incubation, 48 h stimulation, Luminex
structure (smiles),measurement,setting,value
"CCCCCC(=O)O[C@]1(C(C)=O)CC[C@H]2[C@@H]3CCC4=CC(=O)CC[C@]4(C)[C@H]3CC[C@@]21C [HPC, hydroxyprogesterone caproate]","inhibition of IL-2, IL-6, IL-10 and TNF-α release: concentration dependence",[1]; PBMCs stimulated by PHA,concentration dependent
same,release of IL-2,[1]; [4],significantly inhibited
same,release of IL-6,[1]; [4],significantly inhibited
same,release of IL-10,[1]; [4],significantly inhibited
same,release of TNF-α,[1]; [4],significantly inhibited
same,inhibition effect on IL-10 and IFN-γ release: concentration dependence,[2],concentration dependent
same,release of IFN-γ,[2]; [5],significantly inhibited
same,release of IL-6,[2]; [5],significantly inhibited
same,release of IL-10,[2]; [5],significantly inhibited
same,release of TNF-α,[2]; [5],significantly inhibited
same,inhibition effect on IL-6 and IL-10 release: concentration dependence,[3],concentration dependent
same,release of IFN-γ,[3]; [5],significantly inhibited
same,release of IL-6,[3]; [5],significantly inhibited
same,release of IL-10,[3]; [5],significantly inhibited
